Test results taken from patent publication US5948630A, “Method and composition for reducing the effects of endogenous alkaline phosphatase” (Dade Behring Inc., priority 1996, dated 1999).
pKi: −log10 of the molar value.

How the values were obtained:
Human Liver ALP = biological target: T1, Human Liver ALP (Homo sapiens, UniProt P05186); assay: Ki of inhibitors for human liver ALP (Table 1); format: biochemical; conditions: Enzyme: Human Liver
T1 sequence (P05186 18-502 limits assumed): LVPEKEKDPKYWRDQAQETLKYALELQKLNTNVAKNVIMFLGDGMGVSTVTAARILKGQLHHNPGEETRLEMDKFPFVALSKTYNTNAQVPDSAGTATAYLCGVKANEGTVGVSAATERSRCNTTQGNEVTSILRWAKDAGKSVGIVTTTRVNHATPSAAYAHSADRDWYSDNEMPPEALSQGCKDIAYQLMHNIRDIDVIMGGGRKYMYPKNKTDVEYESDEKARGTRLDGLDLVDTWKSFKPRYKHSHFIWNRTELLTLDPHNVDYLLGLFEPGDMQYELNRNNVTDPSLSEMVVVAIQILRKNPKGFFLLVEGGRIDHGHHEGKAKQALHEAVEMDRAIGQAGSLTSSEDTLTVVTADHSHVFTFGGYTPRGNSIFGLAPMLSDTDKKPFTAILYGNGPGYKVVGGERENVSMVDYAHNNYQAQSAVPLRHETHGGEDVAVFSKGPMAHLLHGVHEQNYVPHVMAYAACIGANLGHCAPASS
Excerpt: Another approach to reduce the effects of the human ALPs is to use inhibitors of ALPs in the substrate solution.

[1] = system: endogenous ALP (high molecular weight and/or elevated normal ALP) in patient serum samples; assay: Background signal from endogenous ALP of patient serum samples on Stratus Fluorometric Analyzer, using each substrate/wash composition; set-up: species or system human; conditions: patient serum Samples 1-3 (FIGS. 1-3); ALP conjugate, 4-MUP substrate; rate in mv/min
Experimental: Three carcinoembryonic antigen (CEA) positive patient serum samples (Samples 1, 2, and 3) were identified as having high molecular weight ALP and/or elevated levels of normal ALP. These samples were tested using the compositions of this invention. The patient samples were evaluated on an automated immunoassay analyzer (the Stratus^R Fluorometric Analyzer from Baxter Diagnostics Inc.) which utilizes an ALP conjugate and a 4-MUP substrate. This automated analyzer combines the wash step with the substrate addition step. See, U.S. Pat. No. 4,517,288. The commercially available substrate composition (XWS) has the dual function of washing the solid phase and initiating the ALP reaction. […]
(§1) The samples were evaluated on the analyzer using each composition as the substrate/wash. […]
Five patient samples, Samples 1, 2, and 3 (as described in Example 1), Sample 4 (which originated from a patient who tested positive for colon cancer) and Sample 5 (which originated from a patient who tested positive for breast cancer) were identified as having high molecular weight ALP and/or elevated levels of normal ALP. These samples were evaluated using the compositions of this invention. The patient samples were evaluated on the automated immunoassay analyzer described in Example 1. […]
as §1

[2] = biological target: T2, ALPs in Sarcoma 180/TG ascites cells (Mus musculus, UniProt P09242); conditions: J. Med. Chem. 1977, 20: 563-566; cited from earlier work
T2 construct: host or cells: Sarcoma 180/TG ascites cells
T2 sequence (P09242 18-502 limits assumed): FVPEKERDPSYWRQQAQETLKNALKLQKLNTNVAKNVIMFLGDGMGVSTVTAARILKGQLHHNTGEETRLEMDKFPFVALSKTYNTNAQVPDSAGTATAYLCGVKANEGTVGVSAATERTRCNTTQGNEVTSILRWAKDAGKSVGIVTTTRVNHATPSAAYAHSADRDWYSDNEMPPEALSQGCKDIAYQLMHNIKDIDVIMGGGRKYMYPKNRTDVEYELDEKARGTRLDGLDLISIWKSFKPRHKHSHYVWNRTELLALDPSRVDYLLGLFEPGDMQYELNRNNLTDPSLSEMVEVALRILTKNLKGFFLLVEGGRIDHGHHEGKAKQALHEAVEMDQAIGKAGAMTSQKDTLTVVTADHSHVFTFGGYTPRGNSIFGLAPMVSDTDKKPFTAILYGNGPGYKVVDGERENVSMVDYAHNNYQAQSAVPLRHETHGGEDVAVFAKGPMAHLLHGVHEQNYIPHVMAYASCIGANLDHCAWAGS

Row | pKi (Human Liver ALP) | SMILES | background signal generated from endogenous ALP / false positive reading [1] | pKi [2]
1 | 4.01 | Brc1ccc([C@H]2CN3CCSC3=N2)cc1 [Bromolevamisole] |  | 
2 | 4.52 | C1=CN2CC(c3ccc4ccccc4c3)N=C2S1 (stereo not shown) [Naphthyl, 5,6-Dihydro-6-(2-naphthyl)imidazo-[2,1-b]thiazole] | substantially lowers the background signal | ~6.00
